Patent US20050271676A1, “Inducing cellular immune responses to human immunodeficiency virus-1 using peptide and nucleic acid compositions” (Epimmune Inc., priority 1993, published 2005)
No end group written: not given here.

Columns and labels:
[1] = molecular target: HLA-DRB1*1302 (DR6w19) (Homo sapiens, UniProt P01903+P01911, A100E/A169T/K41T/L162R/M171V/P40S/Q125H/Q178H/Q39Y/Q99D/R42S/S66N/T262R/V115G/W38E/Y61H); test: purified HLA class II binding assay, DRB1*1302 (DR6w19)
[2] = molecular target: T1, HLA-DRB1*0802 (DR8w2) (Homo sapiens, UniProt P01903+P01911, A100R/A103L/A169T/F76Y/H45Y/I96F/K41T/L162R/M171V/P40S/Q125H/Q178H/Q39Y/Q99D/R218S/R42G/S66Y/V115G/W38E); test: biochemical; type: binding
T1 construct: endogenous in cells

[3] = molecular target: T2, HLA-DRB1*0701 (DR7) (Homo sapiens, UniProt P01903+P01911, A100R/A102G/A103Q/D57E/D86V/E43K/F76Y/K127E/L162R/M171V/P40G/Q125H/Q99D/R33Q/R42Y/R54Q/S133A/S66F/T210M/V115G/Y107V/Y59L/Y89S); test: biochemical; type: binding
T2 construct: endogenous in cells; host or cells: Pitout

[4] = molecular target: HLA-A*0206 (Homo sapiens, UniProt P04439, D140Y/D185E/D98H/E176V/E277Q/F33Y/G131W/G231S/I119V/I121R/I166T/I218V/L300P/L318F/N151K/N90K/P208A/P217A/Q86G/Q94H/R138H/R169H/T345S); test: purified HLA class I binding assay, A*0206
[5] = molecular target: HLA-A*0202 (Homo sapiens, UniProt P04439, D140Y/D185E/D98H/E176V/E277Q/G131W/G231S/I119L/I121R/I166T/I218V/L180W/L300P/L318F/N151K/N90K/P208A/P217A/Q67R/Q86G/Q94H/R138H/R169H/T345S); test: purified HLA class I binding assay, A*0202
[6] = molecular target: HLA-A*6802 (Homo sapiens, UniProt P04439, A269V/D140Y/D185E/E176V/E277Q/E87N/F33Y/G231S/I121R/I166T/I218V/L180W/L300P/L318F/N151K/P208A/P217A/Q86R/R138H/R169H/S129P/T345S/V36M); test: purified HLA class I binding assay, A*6802
[7] = molecular target: T3, HLA-DRB1*0301 (DR3) (Homo sapiens, UniProt P01903+P01911, A100K/A102G/A103R/A169T/F55Y/I96L/K41T/L162R/M171V/P40S/Q125H/Q178H/Q39Y/R42S/S66N/T106N/T262R/W38E/Y61H); test: purified HLA class II binding assay, DRB1*0301 (DR3), pH 4.5
T3 construct: endogenous in cells; host or cells: MAT

[8] = molecular target: HLA-A*0203 (Homo sapiens, UniProt P04439, A173T/D140Y/D185E/D98H/E277Q/G131W/G231S/I119V/I121R/I166T/I218V/L180W/L300P/L318F/N151K/N90K/P208A/P217A/Q86G/Q94H/R138H/R169H/T345S); test: purified HLA class I binding assay, A*0203
[9] = molecular target: HLA-A*0201 (Homo sapiens, UniProt P04439, D140Y/D185E/D98H/E176V/E277Q/G131W/G231S/I119V/I121R/I166T/I218V/L300P/L318F/N151K/N90K/P208A/P217A/Q86G/Q94H/R138H/R169H/T345S); test: purified HLA class I binding assay, A*0201
[10] = Table XXd, HIV DR 3b motif peptides
[11] = Table XXb, HIV DR 3a motif peptides

T3 sequence (P01903 26-254 partner, other chains not shown): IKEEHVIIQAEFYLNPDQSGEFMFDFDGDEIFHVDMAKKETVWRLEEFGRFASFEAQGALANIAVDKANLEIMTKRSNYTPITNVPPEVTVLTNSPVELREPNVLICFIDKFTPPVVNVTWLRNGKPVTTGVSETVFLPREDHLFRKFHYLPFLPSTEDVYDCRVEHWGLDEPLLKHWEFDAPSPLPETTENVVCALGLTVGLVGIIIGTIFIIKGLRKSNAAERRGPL

| Molecule | IC50 [4] | IC50 [5] | IC50 [8] | also measured |
| --- | --- | --- | --- | --- |
| ILRQRKTDR | – | – | – | DRw619 binding information [1, 10]: 0.0016; DR8w2 binding information [2]: 0.0270; DR7 binding information [3]: −0.0014 |
| CC(C)C[C@H](NC(=O)[C@H](CCCCN)NC(=O)[C@H](Cc1ccccc1)NC(=O)[C@H](CS)NC(=O)[C@H](Cc1c[nH]c2ccccc12)NC(=O)CNC(=O)[C@H](Cc1ccccc1)NC(=O)[C@@H](NC(=O)[C@H](CC(C)C)NC(=O)[C@@H]1CCCN1)[C@@H](C)O)C(=O)O [25.0142] | 3.7 µM | 0.741 µM | – | IC50 [6]: 0.0476 µM |
| DGAANRETKLCKAGY | – | – | – | DR3 binding information [7, 10]: −0.0017 |
| LVEICTEMEKECKIS | – | – | – | DR3 binding information [7, 11]: −0.0017 |
| CC[C@H](C)[C@H](NC(=O)[C@H](Cc1ccccc1)NC(=O)CNC(=O)CNC(=O)[C@@H](NC(=O)CNC(=O)CNC(=O)[C@@H](NC(=O)[C@H](CCSC)NC(=O)[C@@H](N)CCCCN)[C@@H](C)CC)[C@@H](C)CC)C(=O)O [Peptide 1261.17] | 0.771 µM | 0.0544 µM | 0.0048 µM | – |
| WMTNNPPIPV [25.0139] | – | 3.07 µM | 0.0169 µM | IC50 [9]: 0.098 µM; IC50 [6]: 2.22 µM |
| FLGAAGSTM [1211.05] | 4.11 µM | 3.58 µM | 0.0015 µM | IC50 [9]: 0.0735 µM; IC50 [6]: 66.7 µM |
| WAGIKQEFGIPYNPQ [Peptide 35.0131] | – | – | – | IC50 [7]: 0.3 µM |
| CC[C@H](C)[C@H](NC(=O)CNC(=O)[C@H](C)NC(=O)[C@H](Cc1c[nH]c2ccccc12)NC(=O)[C@H](Cc1c[nH]c2ccccc12)NC(=O)[C@H](CS)NC(=O)[C@H](C)NC(=O)[C@H](C)NC(=O)[C@@H](N)CCCCN)C(=O)O [Peptide 1261.07] | 0.161 µM | – | 0.0833 µM | – |
| CSCC[C@H](NC(=O)[C@H](C)NC(=O)[C@@H](N)CCCNC(=N)N)C(=O)N[C@@H](C)C(=O)N[C@@H](CO)C(=O)N[C@@H](CC(=O)O)C(=O)N[C@@H](Cc1ccccc1)C(=O)N[C@@H](CC(N)=O)C(=O)N[C@@H](CC(C)C)C(=O)O [1260.10] | – | – | 25 µM | – |
| CC[C@H](C)[C@H](NC(=O)[C@H](CC(=O)O)NC(=O)[C@@H](NC(=O)[C@H](C)NC(=O)[C@H](CC(N)=O)NC(=O)[C@H](CC(C)C)NC(=O)[C@H](CC(C)C)NC(=O)[C@@H](N)CO)[C@@H](C)O)C(=O)N[C@@H](C)C(=O)N[C@H](C(=O)O)C(C)C [Peptide 1211.09] | 0.0285 µM | 1.3 µM | – | IC50 [6]: 5.48 µM |
| FSPEVIPMF | – | – | – | DR7 binding information [3]: 0.0023 |
| CSCC[C@H](NC(=O)[C@H](C)NC(=O)[C@H](CCC(=O)O)NC(=O)[C@H](C)NC(=O)[C@H](CC(C)C)NC(=O)[C@@H](N)C(C)C)C(=O)N[C@@H](CO)C(=O)N[C@@H](CCC(N)=O)C(=O)N[C@H](C(=O)O)C(C)C [Peptide 1069.32] | – | 0.0827 µM | 0.0152 µM | – |
| LLWKGEGAVV [1069.33] | 0.771 µM | 0.632 µM | 0.025 µM | – |
| FIHNFKRKG | – | – | – | DR7 binding information [3]: 0.0048 |
| CC(C)C[C@H](NC(=O)[C@H](CCCCN)NC(=O)[C@H](Cc1ccccc1)NC(=O)[C@H](CS)NC(=O)[C@H](Cc1c[nH]c2ccccc12)NC(=O)CNC(=O)[C@H](Cc1ccccc1)NC(=O)[C@@H](NC(=O)[C@@H](N)CC(C)C)[C@@H](C)O)C(=O)O [Peptide 1261.04] | 0.206 µM | – | 4.55 µM | IC50 [6]: 0.0056 µM |
| KLNWASQIYA [25.0161] | 6.17 µM | 3.91 µM | 0.4 µM | – |
| VIQGNSDIK | – | – | – | DR6w19 binding information [1, 11]: 0.0447; DR8w2 binding information [2]: −0.0009; DR7 binding information [3]: −0.0014 |
